For 87 compounds, melting point results are on record in a melting point compilation (Tetko et al.; mined from patent text by program, amines drawn as free bases though some values may be those of a salt).

As a reminder, the melting point is the temperature of the solid-liquid transition.

A value given as a limit tells only on which side of the number the result lay.

Compound `CCOC(=O)CC1=NN(c2ccc(C(=O)O)cc2)C(=O)C1` gave a melting point of 246 °C.
With `O=C1CN(Cc2ccc(COc3cccc4c3CN(C3CCC(=O)NC3=O)C4=O)cc2)CCN1` (configuration not stated) the figure was 245 to 247 °C.
Next, `COC(=O)Nc1nc(-c2ccccc2)c(-c2nc3ccccc3c(=O)n2-c2ccccc2OC)s1`: 228 to 230 °C.
The compound `CCOC(=O)C(CC(=O)c1ccc(OC)cc1)(NC(C)=O)C(=O)OCC` came in with a melting point of 120 to 122 °C.
Compound `CN1C(=O)CC[C@]2(C)c3ccc(-c4ccc([N+](=O)[O-])cn4)cc3CC[C@@H]12` came in with a melting point of 70 to 80 °C.
As for `Cc1nc2ccc(Cl)cc2c(=O)n1C1CCC(=O)NC1=O` (configuration not stated), the melting point fell in the range of 276 to 278 °C.
In turn, `CCOC(=O)C=Cc1ccc(CCNS(=O)(=O)c2ccc(Cl)cc2)cc1` yielded a melting point of 97 to 98 °C.
With `Nc1cccc(C(=O)Nc2cccc3cc(Br)cnc23)c1` the figure was 209 to 211 °C; with `CCOC(=O)c1[nH]c2c(C)ccc(C)c2c1-c1ccccc1`, 107 to 108 °C; with `CC(NC(=O)Cc1cc(F)cc(F)c1)C(=O)NC1C(=O)NC(c2ccccn2)c2ccccc21` (configuration not stated), 100 °C.
Next, `CC(C)(C)C1=CC(C=O)(C(C)(C)C)NN1` (configuration not stated): 216 to 219 °C; `CCOC1=CC(=O)CC(c2ccccc2O)C1` (configuration not stated): 194 to 197 °C.
With `CC(OCCc1ccc(-c2ccc(Cl)cc2)cc1)C(=O)O` (configuration not stated) the figure was 90 to 92 °C; with `Cc1ccc(S(=O)(=O)Oc2cccc3c2CCCN3)cc1`, 112 to 113 °C; with `COc1ccc(C2=NN(Cc3cccnc3)C(=O)[C@H]3CC=CC[C@@H]23)cc1OC` (relative stereo), 117 to 120 °C.
`CC(C)OC(=O)C(=C1SC=CS1)c1ccc(F)cc1` returned a melting point of 86 °C.
Compound `COc1ccc2c(n1)C1(CO2)C(=O)Nc2ccccc21` (configuration not stated) yielded a melting point of 199 to 200 °C.
Next, `N#Cc1ccc(C#CCN2CCc3nc(N)sc3CC2)cc1`: 174 to 176 °C; `CC(C)OC(=O)C(C(=O)OC(C)C)=C1SC2C(S1)N(C)CCN2C` (configuration not stated): 93.6 °C; `CSc1nnc(C(C)(C)C)[nH]1`: 191 to 194 °C.
As for `CCCCCCCCCCOc1cc(OCCCOc2ccc(O)cc2)cc(C(=O)O)c1`, the melting point is 106 to 109 °C.
`O=C1C(=O)c2c(nc3ccccn23)-c2cccc(Cl)c21`: the melting point was over 260 °C.
Compound `CCN(CC)CCCCC1CCN(CCNC(=O)N2c3cc(Cl)ccc3C(=O)Nc3cccnc32)CC1` had a melting point of 157 °C.
With `CCC(CC)Oc1cc(C)nc2c1nc(C)c(=O)n2-c1c(C)cc(C)cc1C` the figure was 215 to 217 °C; with `CCOC(=O)C(C)c1ccc2oc(Nc3ccc(Cl)cc3)nc2c1` (configuration not stated), 135 to 137 °C; with `C=Cc1ccc(OC)cc1C1C(C(=O)OC)=C(C)NC(C)=C1C(=O)OC`, 141 to 143 °C.
With `CCOc1ccc2c(c1)C(=O)N(c1ccc3sccc3c1)C2` the figure was 127 to 129 °C.
Next, `COC(=O)c1sc(C(=O)OC)c([N+](=O)[O-])c1OC`: 80 to 82 °C.
Take `Nc1ccc(F)c(-c2ccncc2)c1F`: the melting point lay in the range of 190 to 192 °C.
Next, `Fc1ccc(F)c(CN2CCNc3ncc(-c4cnc(N5CCOCC5)nc4)cc32)c1Cl`: 250 to 251 °C; `O=C(O)CCC(=O)OCCn1ccnc1`: 108 to 110 °C.
Next, `O=C1CCC(c2ccccc2)(c2ccccc2)C2CN(C(Cc3ccccc3)=NCCCc3ccccc3)CC12` (configuration not stated): 144 °C; `Cn1c(=O)[nH]c(=O)n(-c2cc([N+](=O)[O-])c(F)cc2Cl)c1=O`: 135 to 139 °C; `CCCCCCNC(=S)NC(=O)c1ccc(C#N)cc1`: 95 to 96 °C.
`CN(C)Cc1cccc(-c2cc(-c3ccccc3O)nc(NC(=O)c3cccs3)c2C#N)c1` showed a melting point of 225 to 226 °C.
Next, `O=C(c1ccc(-c2ccn(C(=O)C3CC3)n2)cc1)N1Cc2cccn2Cc2ccccc21`: 197 to 199 °C; `CCCCc1nn(-c2cc(NC(=O)CC)ccc2Cl)c(=O)n1Cc1ccc(-c2ccccc2S(=O)(=O)NC(C)(C)C)cc1F`: 103 to 105 °C.
With `CCCSc1cc(S(N)(=O)=O)c(N)cc1Cl` the figure was 109 to 111 °C; with `CC1(C)CN(c2c(C#N)cnn2-c2ccc(Cl)c(Cl)c2Cl)C1=O`, 147 to 149 °C; with `COc1ccc(S(=O)(=O)Nc2ccccc2C=Cc2cccnc2)cc1`, 131 to 132 °C.
Compound `O=C1CC(c2ccc(F)cc2)c2ccccc21` (configuration not stated) gave a melting point of 120 to 121 °C.
`CCOC(=O)c1ccc(OCCCCCCCCC#CCCCCOc2ccc(Cl)cc2)cc1`: the melting point fell in the range of 52 to 53 °C.
Next, `COCCCn1nnnc1-c1cc(-c2cccc(C(F)(F)F)c2)c(O)cc1O`: 144 to 182 °C; `CCOC(=O)C(Cc1ccc(C)c(C)c1)(NC(C)=O)C(=O)OCC`: 107 to 109 °C; `CCCN1CCCC2Cc3nc(NC(C)=O)sc3CC21` (configuration not stated): over 200 °C.
Take `Cc1cc(F)ccc1-c1ccc2c(c1)NC(=O)CC(c1cccc(-n3ccnc3)c1)=N2`: the melting point lay in the range of 170 to 172 °C.
With `O=C1CCCCCCCCCCCCCCC1` the figure was 67.7 °C.
On to `CCOC(=O)C1=C(C)NC2=C(C(=O)CCC2)C1c1nccn1C` (configuration not stated), for which the melting point was 271 to 272 °C.
With `CCOC(=O)c1c(S)nc2cc(OC)c(OC)cc2c1-c1ccc(OC)c(OC)c1` the figure was 265 to 266 °C.
Next, `CN(Cc1ccccc1)CC1CN(c2c(F)cc3c(=O)c(C(=O)O)cn(C4CC4)c3c2F)CCO1` (configuration not stated): 155 to 157 °C.
Next, `CCOc1cc(C2=NN(C3CCCC3)C(=O)[C@H]3CC=CC[C@@H]23)ccc1OC` (relative stereo): 124 to 127 °C; `COc1ccc(COc2ccc(C(=O)N3CCc4cc(/C=C/CN(C)C)ccc43)cc2)cc1`: 164 to 166 °C.
Compound `CN1CCN(c2ccc(-c3nc4c(N[C@H]5[C@@H](C(N)=O)[C@@H]6C=C[C@H]5C6)c(Br)cnc4[nH]3)cc2)CC1` had a melting point of 215 to 218 °C.
Next, `CSC(=C[N+](=O)[O-])N1CCCCC1`: 65 to 67 °C; `COc1ccc2cc(C#N)ccc2n1`: 163 to 165 °C.
For `COC(=O)c1c(Cl)cc(Cl)c2cc(Cl)ccc12`, the melting point was 110 to 112 °C.
With `CCOC(=O)N1CCC(C(=O)c2ccc(F)cc2)(c2ccccc2)CC1` the figure was 91.7 °C; with `O=C(CCCCC(=O)Oc1ccc(N=Nc2ccccc2)cc1)Oc1ccc(N=Nc2ccccc2)cc1`, 176 to 177 °C; with `CCCc1nc2nccc(C)c2[nH]1`, 110 to 112 °C.
The compound `CC(=O)OC1CCC2(C)C(=CCC3C4CC(OC(C)=O)C(=O)C4(C)CCC32)C1` (configuration not stated) returned a melting point of 173 to 174 °C.
With `C#CC[C@]12CCC(=O)C=C1CC[C@@H]1[C@@H]2CC[C@]2(C)C(=O)CC[C@@H]12` the figure was 174 to 175 °C; with `CC(C)N1CCC(n2cc(C3=C(c4cn(C)c5ccccc45)C(=O)NC3=O)c3ccccc32)CC1`, over 250 °C.
Next, `CC(C)CC(NC(=O)C(NCc1ccccc1)C(C)C)C(=O)NC(CCCCNC(=O)OCc1ccccc1)C(=O)Oc1cccc2ccccc12` (configuration not stated): 153 to 156 °C.
With `COc1cc2ncnc(N3CCN(C(=S)Nc4cc(C)cs4)CC3)c2cc1OC` the figure was 214 to 216 °C; with `CC(C)n1nc(-c2nc(-c3nc(-c4ccccc4)cs3)c(N)nc2-c2ccccc2)ccc1=O`, 240 to 242 °C.
For the compound `COc1cc(COc2nn(-c3ccccc3)cc2C#N)ccc1OCc1nc(-c2ccccc2)oc1C`, the melting point lay within 174 to 175 °C.
With `CCCCCCCCCC(=O)Nc1c2c(nc3ccccc13)CCCC2` the figure was 123 to 126 °C.
With `NC(=S)N1CCc2cccnc21` the figure was 173 °C.
Next, `ON=C1CCCc2occ(-c3cccc(Cl)c3)c21`: 157 to 158 °C; `CC1(C)C(=O)C(C)(C)c2cc(N)c(N)cc21`: 179 to 180 °C; `O=C1COc2ccc(C3=Nn4cnnc4SC3c3ccccn3)cc2N1` (configuration not stated): 216 to 218 °C.
In turn, `Cc1nc(N)c2nc(C)n(CCOCCNC(=O)N3CCOCC3)c2c1C` came in with a melting point of 205 to 207 °C.
The compound `O=C(CCc1ccc(I)cc1)Cn1ccnc1` gave a melting point of 124 to 125 °C.
Next, `Clc1ccc(C2CC(n3ccnc3)c3ccccc3N2)cc1` (configuration not stated): 158 to 160 °C.
Next, `COc1ccc(C(=O)c2c(N)sc3c2CN(C(=O)OCc2ccccc2)C3)cc1OC`: 195 to 196 °C; `O=C(c1cccnc1)N1CCC(c2ccccc2)=N1`: 87 to 89 °C; `COCCN(CCOC)c1ccc(NC(=O)c2ccc(C)c(Nc3nccc(-c4cccnc4)n3)c2)cc1C(F)(F)F`: 156 to 157 °C.
With `O=C(NCC(=O)c1cccs1)c1ccc(F)cc1` the figure was 147 to 148 °C; with `COC(=O)c1oc(C(C)(C)C)cc1N`, 91 to 92 °C; with `Cc1cccc(C(N)=O)c1Nc1nc(Nc2ccc3c(c2)N(C(C)C)C(=O)CCC3)ncc1Cl`, 140 to 160 °C.
Compound `CCCN(CCC)C(=O)CC1CN(Cc2ccccc2)c2ccc(OC(=O)Nc3ccc(C(C)C)cc3)cc21` (configuration not stated) registered a melting point of 157 to 161 °C.
`CN(CCC(Oc1ccc(C(=O)c2ccc3ccccc3c2)cc1)c1ccccc1)CC(=O)O` (configuration not stated) displayed a melting point of 77 to 89 °C.
For the compound `CC(O)Cc1c2c(cc3c(=O)cc(C(=O)O)oc13)CCCC2` (configuration not stated), the melting point is 235 °C.
Next, `O=C1CCc2cc3ccccc3n2C1`: 126 to 128 °C; `COc1cccc(CN2Cc3cc(OC)c(OCc4ccccc4)cc3C(O)C2)c1` (configuration not stated): 115 to 116 °C; `Cc1ccc2c(-c3cnc4[nH]cc(C(=O)N[C@H](C)C(=O)N5CC(C#N)C5)c4n3)nn(C)c2n1`: 275 to 285 °C.
With `COc1cc2c(cc1OC)CN(CCc1ccc(NC(=O)c3cccc4c(=O)c5cccc(OC)c5[nH]c34)c(C)c1)CC2` the figure was 200 to 201 °C.
